# Assay results taken from patent US20260258032A1, “TYROSINE KINASE 2 INHIBITORS AND USES THEREOF” (BIOGEN MA INC., priority 2022, published 2026).
# Where a name gives a salt, the structure may show the parent alone.
# Experiments:
# [1] = system: Tyk2 kinase activity on STAT4; assay: pSTAT4 cell assay (MSD, NK92 cells); format: cell-based; details: compounds 1 hr
# Outline: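 IC50 values come from 4-parameter logistic fits of normalized percent activity. Phospho-STAT was read by MSD (anti-STAT4 antibodies) in NK92 lysates after a 15 min stimulation with 30 ng/mL IL2. The serum-starved cells had been given compound for 1 h (10 points, four-fold, top 10 μM).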
# JH2 domain of human Tyk2 = biological target: T1, JH2 domain of human Tyk2 (Homo sapiens, UniProt P29597); assay: JH2 biochemical assay (TR-FRET probe displacement); format: binding
# T1 construct: 10×His-tagged TYK2 JH2 domain (amino acid 575-876)
# T1 sequence (P29597 575-876): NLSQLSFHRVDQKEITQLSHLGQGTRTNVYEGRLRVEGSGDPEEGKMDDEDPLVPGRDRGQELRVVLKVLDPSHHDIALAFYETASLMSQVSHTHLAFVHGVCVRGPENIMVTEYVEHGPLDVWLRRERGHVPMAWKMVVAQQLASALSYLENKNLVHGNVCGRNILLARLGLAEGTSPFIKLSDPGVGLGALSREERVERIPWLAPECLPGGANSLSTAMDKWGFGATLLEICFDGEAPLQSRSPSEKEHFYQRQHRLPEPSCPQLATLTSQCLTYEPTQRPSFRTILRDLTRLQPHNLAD
# Outline: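 A probe-displacement TR-FRET readout: compounds, tested in 3-fold, 10-point dilutions starting at […], compete with 2 nM tracer for 2 nM His-tagged JH2 (residues 575-876) detected by 0.1 nM Tb-anti-His over 60 min. IC50 comes from 4-parameter fits of normalized 520/495 nm ratios.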
# [2] = TR-FRET probe displacement, JH2 domain of human Tyk2
Compound,IC50 ([1]; stimulated 15 minutes) [nM],IC50 (JH2 domain of human Tyk2; JH2 biochemical assay) [nM],IC50 ([1]; then stimulated 15 minutes) [nM],IC50 (JH2 domain of human Tyk2; [2]) [nM]
"CC(=O)Nc1cc2c(cn1)C1(CC1)CN2c1cc(C)cc(-c2ccn(C)n2)n1 [Example 256, N-(1′-(4-methyl-6-(1-methyl-1H-pyrazol-3-yl)pyridin-2-yl)-1′,2′-dihydrospiro[cyclopropane-1,3′-pyrrolo[3,2-c]pyridin]-6′-yl)acetamide trifluoroacetate]",≥ 1000,10 to 100,,
"CC(=O)Nc1cc2c(cn1)C1(CC1)CN2c1cccc(S(C)(=O)=O)n1 [Example 93, N-(1′-(6-(methylsulfonyl)pyridin-2-yl)-1′,2′-dihydrospiro[cyclopropane-1,3′-pyrrolo[3,2-c]pyridin]-6′-yl)acetamide]",≤ 10,≤ 10,,
"COCCCc1nc(C)cc(N2CC3(CC3)c3cnc(NC(C)=O)cc32)n1 [Example 71, N-(1′-(2-(3-methoxypropyl)-6-methylpyrimidin-4-yl)-1′,2′-dihydrospiro[cyclopropane-1,3′-pyrrolo[3,2-c]pyridin]-6′-yl)acetamide]",≥ 1000,10 to 100,,
"CC(=O)Nc1cc2c(cn1)C1(CC1)CN2c1cc(Oc2cnn(C)c2)nc(C(C)(F)F)n1 [Example 145, N-(1′-(2-(1,1-difluoroethyl)-6-((1-methyl-1H-pyrazol-4-yl)oxy)pyrimidin-4-yl)-1′,2′-dihydrospiro[cyclopropane-1,3′-pyrrolo[3,2-c]pyridin]-6′-yl)acetamide trifluoroacetate]",100 to 1000,10 to 100,,
"CC(=O)Nc1cc2c(cn1)C1(CC1)CN2c1cc(-c2cnn(C3CC3)c2)nc(C(C)(F)F)n1 [Example 387, N-(1′-(6-(1-cyclopropyl-1H-pyrazol-4-yl)-2-(1,1-difluoroethyl)pyrimidin-4-yl)-1′,2′-dihydrospiro[cyclopropane-1,3′-pyrrolo[3,2-c]pyridin]-6′-yl)acetamide trifluoroacetate]",,,≤ 10,≤ 10
"CC(=O)Nc1cc2c(cn1)C1(CC1)CN2c1cc(C2CCOC2)nc(C(C)(F)F)n1 (stereo not shown) [Example 297, N-(1′-(2-(1,1-difluoroethyl)-6-(tetrahydrofuran-3-yl)pyrimidin-4-yl)-1′,2′-dihydrospiro[cyclopropane-1,3′-pyrrolo[3,2-c]pyridin]-6′-yl)acetamide trifluoroacetate]",100 to 1000,≤ 10,,
"CC(=O)Nc1cc2c(cn1)C1(CC1)CN2c1cc(C)nc(-n2cccn2)n1 [Example 100, N-(1′-(6-methyl-2-(1H-pyrazol-1-yl)pyrimidin-4-yl)-1′,2′-dihydrospiro[cyclopropane-1,3′-pyrrolo[3,2-c]pyridin]-6′-yl)acetamide]",≥ 1000,10 to 100,,
"COCCOC1CCN(c2cc(C)cc(N3CC4(CC4)c4cnc(NC(C)=O)cc43)n2)C1 (stereo not shown) [Example 185, N-(1′-(6-(3-(2-methoxyethoxy)pyrrolidin-1-yl)-4-methylpyridin-2-yl)-1′,2′-dihydrospiro[cyclopropane-1,3′-pyrrolo[3,2-c]pyridin]-6′-yl)acetamide]",≥ 1000,100 to 1000,,
"CC(=O)Nc1cc2c(cn1)C1(CC1)CN2c1cc(C)nc(C2CCOC2)n1 (stereo not shown) [Example 103, N-(1′-(6-methyl-2-(tetrahydrofuran-3-yl)pyrimidin-4-yl)-1′,2′-dihydrospiro[cyclopropane-1,3′-pyrrolo[3,2-c]pyridin]-6′-yl)acetamide]",100 to 1000,≤ 10,,
"CCC(C)(O)CCc1cc(N2CC3(CC3)c3cnc(NC(C)=O)cc32)nc(C(C)(F)F)n1 (stereo not shown) [Example 324, N-(1′-(2-(1,1-difluoroethyl)-6-(3-hydroxy-3-methylpentyl)pyrimidin-4-yl)-1′,2′-dihydrospiro[cyclopropane-1,3′-pyrrolo[3,2-c]pyridin]-6′-yl)acetamide]",10 to 100,≤ 10,,
"CC(=O)Nc1cc2c(cn1)C1(CC1)CN2c1cc(CN2CCC2)nc(C(C)(F)F)n1 [Example 299, N-(1′-(6-(azetidin-1-ylmethyl)-2-(1,1-difluoroethyl)pyrimidin-4-yl)-1′,2′-dihydrospiro[cyclopropane-1,3′-pyrrolo[3,2-c]pyridin]-6′-yl)acetamide]",100 to 1000,10 to 100,,
"CC(=O)Nc1cc2c(cn1)C1(CC1)CN2c1cc(C)nc(OC2CC3(COC3)C2)n1 [Example 364, N-(1′-(2-((2-oxaspiro[3.3]heptan-6-yl)oxy)-6-methylpyrimidin-4-yl)-1′,2′-dihydrospiro[cyclopropane-1,3′-pyrrolo[3,2-c]pyridin]-6′-yl)acetamide]",≥ 1000,100 to 1000,,
"CCC1(C#N)CN(c2nc(C)cc(N3CC4(CC4)c4cnc(NC(C)=O)cc43)n2)C1 [Example 219, N-(1′-(2-(3-cyano-3-ethylazetidin-1-yl)-6-methylpyrimidin-4-yl)-1′,2′-dihydrospiro[cyclopropane-1,3′-pyrrolo[3,2-c]pyridin]-6′-yl)acetamide]",100 to 1000,10 to 100,,
"CC(=O)Nc1cc2c(cn1)C1(CC1)CN2c1cc(C)nc(OCC(C)(C)O)n1 [Example 286, N-(1′-(2-(2-hydroxy-2-methylpropoxy)-6-methylpyrimidin-4-yl)-1′,2′-dihydrospiro[cyclopropane-1,3′-pyrrolo[3,2-c]pyridin]-6′-yl)acetamide]",100 to 1000,10 to 100,,
"CC(=O)Nc1cc2c(cn1)C1(CC1)CN2c1cc(C)cc(-c2cnn(C(C)C)c2)n1 [Example 263, N-(1′-(6-(1-isopropyl-1H-pyrazol-4-yl)-4-methylpyridin-2-yl)-1′,2′-dihydrospiro[cyclopropane-1,3′-pyrrolo[3,2-c]pyridin]-6′-yl)acetamide trifluoroacetate]",≥ 1000,10 to 100,,
"CC(=O)Nc1cc2c(cn1)C1(CC1)CN2c1cc(C)nc(OC2CCOC2)n1 (stereo not shown) [Example 374, N-(1′-(6-methyl-2-((tetrahydrofuran-3-yl)oxy)pyrimidin-4-yl)-1′,2′-dihydrospiro[cyclopropane-1,3′-pyrrolo[3,2-c]pyridin]-6′-yl)acetamide trifluoroacetate]",,,≥ 1000,10 to 100
"CC(=O)Nc1cc2c(cn1)C1(CC1)CN2c1cc(-c2cn(C)nc2C)nc(C(C)(F)F)n1 [Example 239, N-(1′-(2-(1,1-difluoroethyl)-6-(1,3-dimethyl-1H-pyrazol-4-yl)pyrimidin-4-yl)-1′,2′-dihydrospiro[cyclopropane-1,3′-pyrrolo[3,2-c]pyridin]-6′-yl)acetamide trifluoroacetate]",10 to 100,≤ 10,,
"CC(=O)Nc1cc2c(cn1)C1(CC1)CN2c1cc(C)nc(OC2CCCC2)n1 [Example 379, N-(1′-(2-(cyclopentyloxy)-6-methylpyrimidin-4-yl)-1′,2′-dihydrospiro[cyclopropane-1,3′-pyrrolo[3,2-c]pyridin]-6′-yl)acetamide trifluoroacetate]",,,≥ 1000,10 to 100
"CCc1cc(N2CC3(CC3)c3cnc(NC(C)=O)cc32)nc(C)n1 [Example 314, N-(1′-(6-ethyl-2-methylpyrimidin-4-yl)-1′,2′-dihydrospiro[cyclopropane-1,3′-pyrrolo[3,2-c]pyridin]-6′-yl)acetamide]",≥ 1000,10 to 100,,
"COC1CCC(Oc2cc(C)cc(N3CC4(CC4)c4cnc(NC(C)=O)cc43)n2)C1 (stereo not shown) [Example 338, N-(1′-(6-((3-methoxycyclopentyl)oxy)-4-methylpyridin-2-yl)-1′,2′-dihydrospiro[cyclopropane-1,3′-pyrrolo[3,2-c]pyridin]-6′-yl)acetamide trifluoroacetate]",100 to 1000,100 to 1000,,
"CCCCCc1cc(N2CC3(CC3)c3cnc(NC(C)=O)cc32)nc(C(C)(F)F)n1 [Example 328, N-(1′-(2-(1,1-difluoroethyl)-6-pentylpyrimidin-4-yl)-1′,2′-dihydrospiro[cyclopropane-1,3′-pyrrolo[3,2-c]pyridin]-6′-yl)acetamide]",10 to 100,≤ 10,,
"CC(=O)Nc1cc2c(cn1)C1(CC1)CN2c1cc(NC2CC2C)nc(C(C)(F)F)n1 (stereo not shown) [Example 182, N-(1′-(2-(1,1-difluoroethyl)-6-((2-methylcyclopropyl)amino)pyrimidin-4-yl)-1′,2′-dihydrospiro[cyclopropane-1,3′-pyrrolo[3,2-c]pyridin]-6′-yl)acetamide trifluoroacetate]",10 to 100,≤ 10,,
"COC1CCN(c2nc(C)cc(N3CC4(CC4)c4cnc(NC(C)=O)cc43)n2)C1 (stereo not shown) [Example 137, N-(1′-(2-(3-methoxypyrrolidin-1-yl)-6-methylpyrimidin-4-yl)-1′,2′-dihydrospiro[cyclopropane-1,3′-pyrrolo[3,2-c]pyridin]-6′-yl)acetamide]",100 to 1000,≤ 10,,
"CC(=O)Nc1cc2c(cn1)C1(CC1)CN2c1cc(N2CCC2)nc(C(C)(F)F)n1 [Example 51, N-(1′-(6-(azetidin-1-yl)-2-(1,1-difluoroethyl)pyrimidin-4-yl)-1′,2′-dihydrospiro[cyclopropane-1,3′-pyrrolo[3,2-c]pyridin]-6′-yl)acetamide]",100 to 1000,≤ 10,,
"CCOC(=O)C(F)(F)c1nc(C)cc(N2CC3(CC3)c3cnc(NC(C)=O)cc32)n1 [Example 281, Ethyl 2-(4-(6′-acetamidospiro[cyclopropane-1,3′-pyrrolo[3,2-c]pyridin]-1′(2′H)-yl)-6-methylpyrimidin-2-yl)-2,2-difluoroacetate]",≥ 1000,100 to 1000,,
"CC(=O)Nc1cc2c(cn1)C1(CC1)CN2c1cc(NCC2CC2)nc(C(C)(F)F)n1 [Example 154, N-(1′-(6-((cyclopropylmethyl)amino)-2-(1,1-difluoroethyl)pyrimidin-4-yl)-1′,2′-dihydrospiro[cyclopropane-1,3′-pyrrolo[3,2-c]pyridin]-6′-yl)acetamide trifluoroacetate]",≤ 10,≤ 10,,
